Data reported in patent publication US7649000B2, “Selective dipeptide inhibitors of kallikrein” (Vantia Limited, priority 2002, dated 2010).
Structures can show the parent of a compound that is named as a salt.

Columns and labels:
Format in all cases: biochemical
[1] = biological target: T1, Human plasma kallikrein (Homo sapiens, UniProt P03952); experiment: Determination of the inhibition constant Ki for plasma kallikrein (chromogenic substrate S-2302, Dixon plot); conditions: substrate S-2302, 37° C.
T1 construct: purchased Callbiochem (Calbiochem)
T1 sequence (P03952 391-638 limits assumed): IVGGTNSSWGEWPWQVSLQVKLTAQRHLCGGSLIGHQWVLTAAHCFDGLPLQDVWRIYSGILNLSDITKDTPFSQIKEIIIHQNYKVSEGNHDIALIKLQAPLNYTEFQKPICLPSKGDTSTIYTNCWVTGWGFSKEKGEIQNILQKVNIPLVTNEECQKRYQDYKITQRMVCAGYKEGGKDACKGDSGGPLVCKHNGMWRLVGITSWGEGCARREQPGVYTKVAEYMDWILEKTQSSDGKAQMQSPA
T1 sequence (P03952 20-390 partner limits assumed): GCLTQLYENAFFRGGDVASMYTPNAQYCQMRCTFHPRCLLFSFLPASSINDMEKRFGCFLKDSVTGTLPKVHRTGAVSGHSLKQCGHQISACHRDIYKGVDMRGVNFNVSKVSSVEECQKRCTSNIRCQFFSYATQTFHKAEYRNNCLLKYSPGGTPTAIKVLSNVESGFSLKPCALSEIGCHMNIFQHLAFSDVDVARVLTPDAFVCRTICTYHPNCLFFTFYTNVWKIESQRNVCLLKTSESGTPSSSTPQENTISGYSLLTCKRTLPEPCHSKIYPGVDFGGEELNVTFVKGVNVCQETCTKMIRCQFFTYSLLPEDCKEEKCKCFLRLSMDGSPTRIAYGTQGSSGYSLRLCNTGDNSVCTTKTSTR
Protocol: Determination of the Inhibition Constant Ki for Plasma Kallikrein
(§1) Inhibition of plasma kallikrein activity in vitro was determined using standard published methods (see e.g. Johansen et al., Int. J. Tiss. Reac. 1986, 8, 185; Shori et al., Biochem. Pharmacol., 1992, 43, 1209; Stüjrzebecher et al., Biol. Chem. Hoppe-Seyler, 1992, 373, 1025). Human plasma kallikrein (Callbiochem) was incubated at 37° C. with three different concentrations of the chromogenic substrate S-2302 (Chromogenix AB) and various concentrations of the test compound. Residual enzyme activity (initial rate of reaction) was determined by measuring the change in optical absorbance at 405 nm and the inhibitory constant Ki for the test compound as determined from a Dixon plot (Dixon, Biochem. J., 1953, 55, 170).

[2] = biological target: Human Tissue Kallikrein (Homo sapiens, UniProt P06870); experiment: Enzyme selectivity: inhibition of human tissue kallikrein (substrate S-2266); conditions: for Selectivity: (Ki for Human Tissue Kallikrein)/(Ki for plasma kallikrein); for Ki: Human Tissue Kallikrein, substrate S-2266
Sequence of Human Tissue Kallikrein (P06870 25-262): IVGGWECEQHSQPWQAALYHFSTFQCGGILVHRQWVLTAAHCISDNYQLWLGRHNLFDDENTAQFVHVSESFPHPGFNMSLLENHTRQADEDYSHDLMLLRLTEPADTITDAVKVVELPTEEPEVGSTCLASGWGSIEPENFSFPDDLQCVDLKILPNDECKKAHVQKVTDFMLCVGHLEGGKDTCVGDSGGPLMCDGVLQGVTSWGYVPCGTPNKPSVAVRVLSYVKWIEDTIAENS
Protocol: as §1, with “Reac. 1986, 8, 185;” left out, “Pharmacol., 1992, 43, 1209;” left out, “[…] Determination of Enzyme Selectivity Selected compounds were further screened for inhibitory activity against other trypsin-like proteases following the method of Example 59 and using the appropriate enzyme and chromogenic substrate (Chromogenix AB). The selectivity is given by: Selectivity=(Ki for test enzyme)/(Ki for plasma kallikrein)” for “J., 1953, 55, 170).”

[3] = biological target: Thrombin (Homo sapiens, UniProt P00734); experiment: Enzyme selectivity: inhibition of thrombin (substrate S-2238)
Protocol: as §1
Determination of Enzyme Selectivity
Selected compounds were further screened for inhibitory activity against other trypsin-like proteases following the method of Example 59 and using the appropriate enzyme and chromogenic substrate (Chromogenix AB). The selectivity is given by: Selectivity=(Ki for test enzyme)/(Ki for plasma kallikrein)

[4] = biological target: Plasmin (Homo sapiens, UniProt P00747); experiment: Enzyme selectivity: inhibition of plasmin (substrate S-2390)
Sequence of Plasmin (P00747 97-810): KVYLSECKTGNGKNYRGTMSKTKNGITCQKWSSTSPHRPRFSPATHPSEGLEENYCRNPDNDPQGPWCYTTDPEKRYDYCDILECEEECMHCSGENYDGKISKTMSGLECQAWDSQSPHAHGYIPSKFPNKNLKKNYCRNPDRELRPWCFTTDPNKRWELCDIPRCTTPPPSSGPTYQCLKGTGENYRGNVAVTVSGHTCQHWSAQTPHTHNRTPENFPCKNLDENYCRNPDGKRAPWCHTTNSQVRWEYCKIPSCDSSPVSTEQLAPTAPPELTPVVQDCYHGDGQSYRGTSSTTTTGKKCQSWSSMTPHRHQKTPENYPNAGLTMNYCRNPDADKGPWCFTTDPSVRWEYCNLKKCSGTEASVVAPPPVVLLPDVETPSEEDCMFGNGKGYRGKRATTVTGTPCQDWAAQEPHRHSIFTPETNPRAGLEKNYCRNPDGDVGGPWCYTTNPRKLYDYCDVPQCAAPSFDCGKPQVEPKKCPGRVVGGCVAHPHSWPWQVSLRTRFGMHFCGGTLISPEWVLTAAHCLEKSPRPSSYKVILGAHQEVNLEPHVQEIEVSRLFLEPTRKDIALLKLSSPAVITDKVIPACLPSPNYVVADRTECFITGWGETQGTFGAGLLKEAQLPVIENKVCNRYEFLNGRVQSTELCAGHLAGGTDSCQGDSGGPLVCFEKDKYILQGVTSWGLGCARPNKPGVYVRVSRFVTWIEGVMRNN
Protocol: as §1, with “Reac. 1986, 8, 185;” left out, “Pharmacol., 1992, 43, 1209;” left out, “[…] Determination of Enzyme Selectivity Selected compounds were further screened for inhibitory activity against other trypsin-like proteases following the method of Example 59 and using the appropriate enzyme and chromogenic substrate (Chromogenix AB). The selectivity is given by: Selectivity=(Ki for test enzyme)/(Ki for plasma kallikrein)” for “J., 1953, 55, 170).”

[5] = biological target: T2, Trypsin (Bos taurus, UniProt P00760); experiment: Enzyme selectivity: inhibition of trypsin (substrate S-2222)
T2 sequence (P00760 24-246): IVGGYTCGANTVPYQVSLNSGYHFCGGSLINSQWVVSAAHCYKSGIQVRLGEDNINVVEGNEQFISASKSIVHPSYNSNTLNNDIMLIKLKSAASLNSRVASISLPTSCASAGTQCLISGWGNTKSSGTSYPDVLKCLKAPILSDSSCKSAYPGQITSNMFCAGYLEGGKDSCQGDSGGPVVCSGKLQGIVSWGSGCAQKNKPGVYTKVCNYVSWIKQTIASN
Protocol: as §1, with “Reac. 1986, 8, 185;” left out, “Pharmacol., 1992, 43, 1209;” left out, “[…] Determination of Enzyme Selectivity Selected compounds were further screened for inhibitory activity against other trypsin-like proteases following the method of Example 59 and using the appropriate enzyme and chromogenic substrate (Chromogenix AB). The selectivity is given by: Selectivity=(Ki for test enzyme)/(Ki for plasma kallikrein)” for “J., 1953, 55, 170).”

`CCOc1ccc(C[C@@H](NC(=O)c2ccccc2)C(=O)N[C@@H](Cc2ccccc2)C(=O)NC2CCN(C(=N)N)CC2)cc1.O=C(O)C(F)(F)F` [Example 4, (2′S,2″R)-4-(2′-(2″-Benzoylamino-3″-(4′″-ethoxyphenyl)propanoylamino)-3′-phenyl-propanoylamino)piperidine-1-carboxamidine trifluoroacetate] was tested, and the Ki [1] was 1.4 nM, the Selectivity [2] was 13,000 and the Ki [2] was 18500 nM.
Molecule `N=C(N)N1CCC(NC(=O)[C@H](Cc2ccccc2)NC(=O)[C@H](N)Cc2ccc(OCc3ccccc3)cc2)CC1` [Example 32] has a Ki [1] of 5.5 nM.
`CCOc1ccc(C[C@@H](N)C(=O)N[C@H](C(=O)NC2CCN(C(=N)N)CC2)[C@H](OC)c2ccccc2)cc1` [Example 6, (2′S,2″R,3′R)-4-(2′-(2″-Amino-3″-(4′″-ethoxyphenyl)propanoylamino)-3′-methoxy-3′-phenyl-propanoylamino)piperidine-1-carboxamidine trifluoroacetate] showed a Ki [1] of 25 nM.
In the case of `CCOc1ccc(C[C@@H](N)C(=O)N[C@H](C(=O)NC2CCN(C(=N)N)CC2)[C@H](O)c2ccccc2)cc1.O=C(O)C(F)(F)F` [Example 5, (2′S,2″R, 3′R)-4-(2′-(2″-Amino-3″-(4′″-ethoxyphenyl)propanoylamino)-3′-hydroxy-3′-phenyl-propanoylamino)piperidine-1-carboxamidine trifluoroacetate], the Ki [1] is reported as 6.6 nM, the Selectivity [2] is reported as >10,000 and the Ki [2] is reported as over 70000 nM.
For `N=C(N)N1CCC(NC(=O)[C@H](Cc2ccccc2)NC(=O)[C@@H](CC2CCC3CCCCC3C2)NCC(=O)O)CC1` (some centres unmarked) [Example 14], the Ki [1] was 2.6 nM.
With `CCOc1ccc(C[C@@H](N)C(=O)N[C@@H](Cc2ccccc2)C(=O)NC2CCN(C(=N)N)CC2)cc1.O=C(O)C(F)(F)F` [Example 1, (2′S,2″R)-4-(2′-(2″-Amino-3″-(4′″-ethoxyphenyl)propanoylamino)-3′-phenylpropanoyl-amino)piperidine-1-carboxamidine trifluoroacetate] the Ki [1] was 4.5 nM, the Selectivity [2] was 10,000 and the Ki [2] was 45000 nM.
Work on `CCOc1ccc(C[C@@H](NC)C(=O)N[C@@H](Cc2ccccc2)C(=O)NC2CCN(C(=N)N)CC2)cc1` [Example 39] yielded a Ki [1] of 15 nM, a Selectivity [2] of 930 and a Ki [2] of 14000 nM.
For `CCOc1ccc(C[C@@H](NC(=O)CC)C(=O)N[C@@H](Cc2ccccc2)C(=O)NC2CCN(C(=N)N)CC2)cc1` [Example 45], the Ki [1] was 3 nM, the Selectivity [2] was 16,000 and the Ki [2] was 49000 nM.
`COC(=O)CN[C@H](CC1CCC2CCCCC2C1)C(=O)N[C@@H](Cc1ccccc1)C(=O)NC1CCN(C(=N)N)CC1` (some centres unmarked) [Example 15] gave a Ki [1] of 19 nM.
With `CCOc1ccc(C[C@@H](NS(=O)(=O)c2ccccc2)C(=O)N[C@@H](Cc2ccccc2)C(=O)NC2CCN(C(=N)N)CC2)cc1` [Example 42] the Ki [1] was 4.5 nM, the Selectivity [2] was 1,500 and the Ki [2] was 6800 nM.
In the case of `CCCC(=O)N[C@H](Cc1ccc(OCC)cc1)C(=O)N[C@@H](Cc1ccccc1)C(=O)NC1CCN(C(=N)N)CC1` [Example 44], the Ki [1] is reported as 4.1 nM.
For `CCOc1ccc(C[C@@H](NC(C)=O)C(=O)N[C@@H](Cc2ccccc2)C(=O)NC2CCN(C(=N)N)CC2)cc1` [Example 43], the Ki [1] was 7.3 nM, the Selectivity [2] was 9,400 and the Ki [2] was 69000 nM.
`CCOc1ccc(C[C@@H](NS(C)(=O)=O)C(=O)N[C@@H](Cc2ccccc2)C(=O)NC2CCN(C(=N)N)CC2)cc1` [Example 40] showed a Ki [1] of 9 nM, a Selectivity [2] of 210 and a Ki [2] of 1950 nM.
`N=C(N)N1CCC(NC(=O)[C@H](Cc2ccccc2)NC(=O)[C@@H](CC2CCCCC2)NCC(=O)O)CC1.O=C(O)C(F)(F)F` [Example 3, (2′S,2″R)-4-(2′-(2″-(Carboxymethylamino)-3″-cyclohexylpropanoylamino)-3′-phenyl-propanoylamino)piperidine-1-carboxamidine trifluoroacetate] was tested, and the Ki [1] was 3 nM, the Selectivity [2] was 2,000 and the Ki [2] was 6000 nM. The Selectivity ([3]; (Ki for Thrombin)/(Ki for plasma kallikrein)) was 100, the Ki ([3]; Thrombin, substrate S-2238) was 310 nM and the Selectivity ([4]; (Ki for Plasmin)/(Ki for plasma kallikrein)) was 1,000. The Ki ([4]; Plasmin, substrate S-2390) was 3200 nM, the Selectivity ([5]; (Ki for Trypsin)/(Ki for plasma kallikrein)) was 270 and the Ki ([5]; Trypsin, substrate S-2222) was 825 nM.
`CCCOc1ccc(C[C@@H](N)C(=O)N[C@@H](Cc2ccccc2)C(=O)NC2CCN(C(=N)N)CC2)cc1` [Example 34] was tested, and the Ki [1] was 7 nM.
Molecule `CCOc1ccc2c(c1)CN[C@@H](C(=O)N[C@@H](Cc1ccccc1)C(=O)NC1CCN(C(=N)N)CC1)C2` [Example 52] has a Ki [1] of 18 nM.
`COC(=O)CN[C@H](CC1CCCCC1)C(=O)N[C@@H](Cc1ccccc1)C(=O)NC1CCN(C(=N)N)CC1` [Example 2, (2′S,2″R)-4-(2′-(3″-Cyclohexyl-2″-(methyloxycarbonylmethylamino)propanoylamino)-3′-phenylpropanoylamino)piperidine-1-carboxamidine trifluoroacetate] was tested, and the Ki [1] was 66 nM.
